Several values for one entry are separate records, joined by “and”; a condition that tells them apart may be missing. Equal entries are not always repeated. Structures can show the parent of a compound that is named as a salt.
Tests used:
[1] = Acute toxicity, intravenous, Litchfield and Wilcoxon; conditions: mouse, in vivo, mice
Experimental: The acute toxicity of the compounds of the invention was determined intravenously in mice according to the method of Litchfield and Wilcoxon (J. Pharm. Exp. Therap. […], 96, 99).
The following results were obtained, expressed in the form of the LD50, compared with a benzoylindolizine derivative, in this case 2-ethyl-3-{4-[3-(di-n-butylamino)propyloxy]benzoyl}indolizine or butoprozine.

[2] = tested on: isolated rat aorta; assay: Calcium inhibitory properties: contractile response to potassium-induced depolarization on isolated rat aorta; set-up: species or system isolated organ, male Wistar rats; conditions: for activity at 1 µM: 10^-6 M; for activity at 0.001 µM: 10^-9 M; for % of the maximum contractional effect: 60 min
How it was run: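 Male Wistar rat aorta strips under 2 g tension in modified Krebs-bicarbonate at 37° C, gassed with CO2/O2; contraction induced by 100 mM KCl potassium-Krebs. Compound incubated 60 min before repeat K+ depolarization; response expressed as % of maximum contraction before compound.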

[3] = tested on: epinephrine-induced increase in blood-pressure (anti-α effect); assay: Antiadrenergic properties: anti-α effect (reduction of epinephrine-induced hypertension); format: in vivo; set-up: key to anti-α effect: +: for a reduction < 50%; ++: for a reduction ≥ 50%; +++: for a reduction sub-total (almost complete reduction); conditions: dog
Experimental: The object of this test is to determine the capacity of the compounds of the invention for reducing the increase in epinephrine-induced increase in blood-pressure (anti-α effect) and the isoprenaline-induced acceleration in heart rate (anti-β effect), in dogs previously anaesthatized with pentobarbital and atropinized. For each dog, the dose of epinephrine (between 3 and 10 μg/kg) which induced a reproducible increase in the blood-pressure of approximately 133×10^2 Pa and the dose of isoprenaline (1 to 2 μg/kg) which induced a reproducible increase in the heart rate of approximately 70 beats/min. were first determined. The dose of epinephrine and of isoprenaline, determined in this manner, were injected alternately every ten minutes and, after two successive reference responses had been obtained, an amount of the test compound was administered intravenously. The percentage reduction in the hypertension induced by the test compound compared with the reference hypertension previously obtained (approximately 100 mm Hg) was recorded. In both cases, the results of the reduction in blood-pressure or in the heart rate have been expressed as follows: […]

[4] = tested on: isoprenaline-induced acceleration in heart rate (anti-β effect); assay: Antiadrenergic properties: anti-β effect (reduction of isoprenaline-induced tachycardia); format: in vivo; set-up: key to anti-β effect: +: for a reduction < 50%; ++: for a reduction ≥ 50%; +++: for a reduction sub-total (almost complete reduction); conditions: dog; for inhibition in vivo at 0.13 mg/kg: 0.13 mg/kg i.v.; for inhibition in vivo at 3 mg/kg: 3 mg/kg i.v.
How it was run: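 Pentobarbital-anaesthetized, atropinized dogs given isoprenaline (1–2 μg/kg, dose set per dog for ~70 beats/min rise) alternating with epinephrine every 10 min. After two reference responses, compound given intravenously; % reduction in isoprenaline tachycardia versus reference recorded.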

[5] = Rattus norvegicus, 1 h, read-out: % of the maximum contractional effect
[6] = Rattus norvegicus, 1 h, 10^-7 M, read-out: % of the maximum contractional effect
[7] = Rattus norvegicus, 1 h, 10^-8 M, read-out: % of the maximum contractional effect
[8] = Canis lupus familiaris, iv, 0.12 mg/kg i.v.
[9] = Canis lupus familiaris, iv, 0.52 mg/kg i.v.
[10] = Canis lupus familiaris, iv, 0.027 mg/kg i.v.

SMILES: CCCCN(CCCC)CCCOc1ccc(C(=O)c2c(CC)cc3ccccn23)cc1 [Butoprozine, 2-ethyl-3-{4-[3-(di-n-butylamino)propyloxy]benzoyl}indolizine, reference compound]
- LD50 [1]: 23 mg/kg

SMILES: CCCCN(CCCC)CCCOc1ccc(S(=O)(=O)c2c(C)cn3ccccc23)cc1.O=C(O)C(=O)O [Ex. 6, 2-Methyl-1-{4-[3-(di-n-butylamino)propyloxy]benzenesulphonyl}indolizine oxalate]
- LD50 [1]: 31 mg/kg
- activity at 1 µM [2, 5]: 13.9%
- activity at 0.1 µM [2, 6]: 69.1%

SMILES: CCCN(CCC)CCCOc1ccc(S(=O)(=O)c2c(CC)cn3ccccc23)cc1.Cl [Ex. 7, 2-Ethyl-1-{4-[3-(di-n-propylamino)propyloxy]benzenesulphonyl}indolizine hydrochloride]
- anti-α effect ([3]; 5 mg/kg i.v.): +++
- LD50 [1]: 26 mg/kg
- anti-β effect ([4]; 5 mg/kg i.v.): +++
- activity at 1 µM [2, 5]: 8.3%
- activity at 0.1 µM [2, 6]: 60%
- Activity ratio ([2]; compound / Compound E): 6.0

SMILES: CCCCN(CCCC)CCCOc1ccc(S(=O)(=O)c2c(-c3ccccc3)cn3ccccc23)cc1.Cl [Ex. 18, 2-Phenyl-1-{4-[3-(di-n-butylamino)propyloxy]benzenesulphonyl}indolizine hydrochloride]
- LD50 [1]: 35 mg/kg
- activity at 1 µM [2, 5]: 55.6%

SMILES: CCCCN(CCCC)CCCOc1ccc(S(=O)(=O)c2c(-c3ccccc3)cn3ccccc23)cc1C.Cl [Ex. 19, 2-Phenyl-1-{4-[3-(di-n-butylamino)propyloxy]-3-methylbenzenesulphonyl}indolizine hydrochloride]
- LD50 [1]: 60 mg/kg
- activity at 1 µM [2, 5]: 77.2%

SMILES: CCCc1sc2ccccc2c1S(=O)(=O)c1ccc(OCCCN(C)CCc2ccc(OC)c(OC)c2)cc1 [Ex. 68, 2-n-Propyl-3-[4-{3-[N-methyl-N-(3,4-dimethoxy-β-phenethyl)amino]propyloxy}benzenesulphonyl]benzothiophene hemioxalate]
- anti-α effect ([3]; 0.6 mg/kg i.v.): +++
- inhibition in vivo at 0.6 mg/kg ([4]; Canis lupus familiaris, iv, 0.6 mg/kg i.v.): ≥ 50%
- activity at 1 µM [2, 5]: 9.7%
- activity at 0.1 µM [2, 6]: 45.3%
- activity at 0.01 µM [2, 7]: 68.9%

SMILES: CCCCc1oc2ccccc2c1S(=O)(=O)c1ccc(OCCCN(C)CCc2ccc(OC)c(OC)c2)cc1 [Ex. 69, 2-n-butyl-3-[4-{3-[N-methyl-N-(3,4-dimethoxy-β-phenethyl)amino]propyloxy}benzenesulphonyl]benzofuran hydrochloride]
- anti-α effect ([3]; 1.2 mg/kg i.v.): +++
- anti-β effect ([4]; 1.2 mg/kg i.v.): + +
- activity at 1 µM [2, 5]: 36.8%
- activity at 0.1 µM [2, 6]: 59%
- activity at 0.01 µM [2, 7]: 76%

SMILES: CCCCN(CCCC)CCCOc1ccc(S(=O)(=O)c2c(C(C)C)nn3ccccc23)cc1 [Ex. 70, 2-isopropyl-3-{4-[3-(di-n-butylamino)propyloxy]benzenesulphonyl}pyrazolo[1,5-a]pyridine oxalate]
- inhibition in vivo at 0.12 mg/kg [3, 8]: ≥ 50%
- inhibition in vivo at 0.12 mg/kg [4, 8]: < 50%
- activity at 1 µM [2, 5]: 0%
- activity at 0.1 µM [2, 6]: 18.9%
- activity at 0.01 µM [2, 7]: 83%

SMILES: COc1ccc(CCN(C)CCCOc2ccc(S(=O)(=O)c3c(C(C)C)nn4ccccc34)cc2)cc1OC [Ex. 71, 2-isopropyl-3-[4-{3-[N-methyl-N-(3,4-dimethoxy-β-phenethyl)amino]propyloxy}benzenesulphonyl]pyrazolo(1,5-a]pyridine oxalate]
- anti-α effect ([3]; 0.13 mg/kg i.v.): +++
- inhibition in vivo at 0.13 mg/kg ([4]; Canis lupus familiaris, iv): ≥ 50%
- activity at 1 µM [2, 5]: 0%
- activity at 0.1 µM [2, 6]: 15.1%
- activity at 0.01 µM [2, 7]: 67.1%
- activity at 0.001 µM [2, 5]: 84.9%

SMILES: CC(C)c1nn2ccccc2c1S(=O)(=O)c1ccc(OCCCNC(C)(C)C)cc1 [Ex. 72, 2-isopropyl-3-{4-[3-(tertiobutylamino)propyloxy]benzenesulphonyl}pyrazolo[1,5-a]pyridine oxalate]
- inhibition in vivo at 0.52 mg/kg [3, 9]: ≥ 50%
- inhibition in vivo at 0.52 mg/kg [4, 9]: < 50%
- activity at 1 µM [2, 5]: 13.2%
- activity at 0.1 µM [2, 6]: 66.5%
- activity at 0.01 µM [2, 7]: 84%

SMILES: COc1ccc(CCN(C)CCCOc2ccc(S(=O)(=O)C3=C(C(C)C)OCC3)cc2)cc1OC [Ex. 73, 2-isopropyl-3-[4-{3-[N-methyl-N-(3,4-dimethoxy-β-phenethyl)amino]propyloxy}benzenesulphonyl]-4,5-dihydro-furan oxalate]
- anti-α effect ([3]; 3 mg/kg i.v.): +++
- inhibition in vivo at 3 mg/kg ([4]; Canis lupus familiaris, iv): ≥ 50%
- activity at 1 µM [2, 5]: 8.2%
- activity at 0.1 µM [2, 6]: 66.7%
- activity at 0.01 µM [2, 7]: 78.3%

SMILES: CCCCN(CCCC)CCCOc1ccc(S(=O)(=O)c2cc3ccccc3nc2C(C)C)cc1.O=C(O)C(=O)O [Ex. 74, 2-isopropyl-3-{4-[3-(di-n-butylamino)propyloxy]benzenesulphonyl}quinoline oxalate]
- anti-α effect ([3]; 1.2 mg/kg i.v.): +++
- inhibition in vivo at 1.2 mg/kg ([4]; Canis lupus familiaris, iv, 1.2 mg/kg i.v.): < 50%
- activity at 1 µM [2, 5]: 22.4%
- activity at 0.1 µM [2, 6]: 67.3%

SMILES: COc1ccc(CCN(C)CCCOc2ccc(S(=O)(=O)c3cc4ccccc4nc3C(C)C)cc2)cc1OC [Ex. 75, 2-isopropyl-3-[4-{3-[N-methyl-N-(3,4-dimethoxy-β-phenethyl)amino]propyloxy}benzenesulphonyl]quinoline oxalate]
- anti-α effect ([3]; 1.3 mg/kg i.v.): +++
- inhibition in vivo at 1.3 mg/kg ([4]; Canis lupus familiaris, iv, 1.3 mg/kg i.v.): < 50%
- % of the maximum contractional effect ([2]; 10^-7 M, 0.1 µM): 54% and 79.6%
- activity at 0.01 µM [2, 7]: 89.7%

SMILES: COc1ccc(CCN(C)CCCOc2ccc(S(=O)(=O)c3c(C(C)C)cn4ncccc34)cc2)cc1OC [Ex. 76, 5-[4-{3-[N-methyl-N-(3,4-dimethoxy-β-phenethyl)amino]propyloxy}benzenesulphonyl]-6-isopropyl-pyrrolo[1,2-b]pyridazine oxalate]
- anti-α effect ([3]; 0.13 mg/kg i.v.): +++
- inhibition in vivo at 0.13 mg/kg ([4]; Canis lupus familiaris, iv): < 50%
- activity at 0.1 µM [2, 6]: 0%
- activity at 0.01 µM [2, 7]: 18.1%
- activity at 0.001 µM [2, 5]: 68.1%

SMILES: COc1ccc(CCN(C)CCCOc2ccc(S(=O)(=O)c3ccoc3C(C)C)cc2)cc1OC [Ex. 77, 2-isopropyl-3-[4-{3-[N-methyl-N-(3,4-dimethoxy-β-phenethyl)amino]propyloxy}benzenesulphonyl]furan oxalate]
- anti-α effect ([3]; 3 mg/kg i.v.): +++
- inhibition in vivo at 3 mg/kg ([4]; Canis lupus familiaris, iv): ≥ 50%
- activity at 0.1 µM [2, 6]: 43.2%
- activity at 0.01 µM [2, 7]: 86%
- activity at 0.001 µM [2, 5]: 89.8%

SMILES: COc1cc(CCNCCCOc2ccc(S(=O)(=O)c3c(C(C)C)cn4ccccc34)cc2)cc(OC)c1 [Ex. 133, 1-[4-{3-[N-(3,5-dimethoxy-β-phenethyl)amino]propyloxy}benzenesulphonyl]-2-isopropyl-indolizine acid oxalate]
- inhibition in vivo at 0.027 mg/kg [3, 10]: ≥ 50%
- inhibition in vivo at 0.027 mg/kg [4, 10]: < 50%
- % of the maximum contractional effect ([2]; 10^-8 M, 0.01 µM): 30.3%
- activity at 0.1 µM [2, 6]: 6.2%
- activity at 0.01 µM [2, 7]: 30.5%
- activity at 0.001 µM [2, 5]: 73.4%

SMILES: COc1cc(CCN(C)CCCOc2ccc(S(=O)(=O)c3c(C(C)C)cn4ccccc34)cc2)cc(OC)c1 [Ex. 145, 2-isopropyl-1[4-{3-[N-methyl-N-(3,5-dimethoxy-β-phenethyl)amino]propyloxy}benzenesulphonyl]indolizine acid oxalate]
- anti-α effect ([3]; 0.033 mg/kg i.v.): +++
- inhibition in vivo at 0.033 mg/kg ([4]; Canis lupus familiaris, iv, 0.033 mg/kg i.v.): ≥ 50%
- activity at 0.01 µM [2, 7]: 21%
- activity at 0.001 µM [2, 5]: 57.7%
- activity at 0.0001 µM ([2]; Rattus norvegicus, 1 h, 10^-10 M, read-out: % of the maximum contractional effect): 81%
